According to patent publication US20130288364A1, “ENGINEERED KINETOCHORES AND USES THEREOF” (Whitehead Institute for Biomedical Research, priority 2010, published 2013):

Tested on: U2OS-LacO cells
Test: Interaction of LacI foci with spindle microtubules (foci shape)
Assay type: cell-based, human
Conditions: 2 μM
Description: We next sought to test the interaction of these foci with spindle microtubules. […] This deformation of the LacI foci could represent microtubules binding the structure to opposite spindle poles. In such a situation, tension across the region would result in a change in the shape of the chromatin. Consistent with microtubule interactions with the foci, the deformed shape of the GFP-CENP-T-ΔC-LacI focus was dependent on microtubules, as nocodazole treatment relaxed this to a circular morphology, with an average length to width ration of 1.15 (FIG. 6B). See also FIG. 8. Deformation of the GFP-CENP-T-ΔC-LacI focus was exacerbated by treatment with the Aurora B inhibitor ZM447439, which has been proposed to regulate both kinetochore-microtubule attachments (Cheeseman and Desai, 2008) and chromatinstructure (Lipp et al., 2007).
Immunofluorescence in human cells was conducted as described previously (Kline et al., 2006). […]

In the case of `COc1cc2c(Nc3ccc(NC(=O)c4ccccc4)cc3)ncnc2cc1OCCCN1CCOCC1` [ZM447439], the “effect on deformation of the GFP-CENP-T-ΔC-LacI focus” value is reported as “exacerbated”.
